Source: patent US4220755A, “Fortimicin B derivatives and process for production thereof” (Abbott Laboratories, priority 1976, dated 1980)
Converted amounts (≈) assume the structure as drawn. Like-named read-outs stand apart in the source and are kept apart here.

Legend:
[1] = tested on: Pseudomonas aeruginosa R5 KY8512; assay: MIC, agar dilution method, pH 7.2; type: cell-based
Method: (§1) Measurement was carried out according to the agar dilution method, using a medium of pH 8.0, or the Japanese Antibiotic Medicament Standard, using a medium of pH 7.2 Units are in mcg/ml.
6: neomycin, producing phosphotransferase type I and type II.

Providencia sp 164 = assay: MIC, agar dilution method, pH 7.2; type: cell-based
Method: as §1
7: gentamicin, producing acetyltransferase type II.

[2] = tested on: Salmonella typhosa KY4278 ATCC9992; assay: MIC, agar dilution method, pH 8.0; type: cell-based; details: Salmonella enterica, pH 8, read-out: Minimum inhibition concentration (MIC), ST
Method: as §1
S.T.: Salmonella typhosa KY4278 ATCC9992

[3] = tested on: Klebsiella pneumoniae 8045; assay: ED50 in infected mice; type: in vivo, ddY-strain mice; details: 168 h, read-out: ED50 KP
Method: (§2) In this experiment, one group consisting of five ddY-strain mice is used. The microorganisms shown below are inoculated into each animal. One hour after the inoculation, test compounds dissolved in distilled water for injection are injected intraperitoneally to test animals by one shot. The test animals are observed one week after the injection, and the ED50 is calculated according to the method of Behrens-Karber.
*^1 KP means Klebsiella pneumoniae 8045. 1.3 × 10^5 cells
are inoculated into each mouse.

Escherichia coli Juhl = assay: ED50 in infected mice; type: in vivo, ddY-strain mice; details: ip, 168 h, read-out: ED50 EC
Method: as §2
*^2 EC means Escherichia coli Juhl. 2.1 × 10^4 cells are
inoculated into each mouse.

in vivo = details: mouse, iv
Method: In this experiment, one group consisting of five ddY-strain mice is used. Test compounds dissolved in 0.2 ml of distilled water for injection are injected intravenously into each animal in 10 seconds. The LD50 is calculated according to the method of Behrens-Karber.

[4] = Stability in alkaline aqueous conditions; type: physicochemical; details: for Stability in aqueous solution: free base
Method: The stability of 4-N-acylfortimicin B derivatives in aqueous alkaline conditions is poor. […] Therefore, purification of these compounds under basic conditions (for example, column chromatography with Amberlite CG-50, eluting with aqueous ammonia) is not practical.
In contrast with the instability of 4-N-acylfortimicin B derivatives, 4-N-alkylfortimicin B derivatives are so stable that no decomposition occurs even in aqueous barium hydroxide solution at reflux temperature for 18 hours. Therefore, in the case of 4-N-alkylfortimicin B, any substituents can be introduced at 4-N-position of fortimicin B, even though such substituents can not be introduced as the acyl type to such position due to the aforementioned instability.

various microorganisms = assay: Antibacterial activity (general statements); type: cell-based; details: qualitative statement
Method: as §1

[5] = R5KY8512, pH 7.2, read-out: Minimum inhibition concentration (MIC)
[6] = pH 7.2, Providencia sp 164, 7**: gentamicin, producing acetyltransferase type II, read-out: Minimum inhibition concentration (MIC)

| Structure (SMILES) | MIC [1, 5] [µg/mL] | MIC (Providencia sp 164; Providencia, 164, pH 7.2, read-out: Minimum inhibition concentration (MIC)) [µg/mL] | MIC [2] [µg/mL] | ED50 ([3]; Klebsiella pneumoniae, 8045, ip) [mg/kg] | ED50 (Escherichia coli Juhl; Escherichia coli) [mg/kg] | LD50 (in vivo) [mg/kg] | Stability in aqueous solution ([4]; pH 10, 100° C., 4 hours) | Stability in aqueous solution ([4]; pH 10, room temperature, 2 weeks) | Stability under strongly alkaline conditions [4] | Antibacterial activity (various microorganisms) | MIC ([1]; R5KY8512, pH 7.2, P. aeruginosa R5 KY8512, 6**: neomycin, producing phosphotransferase type I and type II, read-out: Minimum inhibition concentration (MIC)) [µg/mL] | MIC (Providencia sp 164; [6]) [µg/mL] | ED50 ([3]; ip, mice, intraperitoneal one shot 1 hour after inoculation of Klebsiella pneumoniae 8045 (1.3 × 10^5 cells), sulfate, one week observation) [mg/kg] | ED50 (Escherichia coli Juhl; mice, intraperitoneal one shot 1 hour after inoculation of Escherichia coli Juhl (2.1 × 10^4 cells), sulfate, one week observation) [mg/kg] |
| --- | --- | --- | --- | --- | --- | --- | --- | --- | --- | --- | --- | --- | --- | --- |
| CO[C@H]1[C@@H](O)[C@H](N)[C@@H](O[C@H]2O[C@H]([C@H](C)N)CC[C@H]2N)[C@H](O)[C@@H]1N(C)C(=O)CN [Compound 2, 4-N-glycylfortimicin B, reference compound] | 12.5 (≈ 30.8 µM) | 25 (≈ 61.7 µM) | 0.16 (≈ 0.395 µM) | 2.06 | 5.06 | 330 | almost completely decomposed | almost completely decomposed | slightly unstable | have antibacterial activity | – | – | – | – |
| CO[C@H]1[C@@H](O)[C@H](N)[C@@H](O[C@H]2O[C@H]([C@H](C)N)CC[C@H]2N)[C@H](O)[C@@H]1N(C)C(=O)CNC(N)=O [Compound 3, 4-N-hydantoylfortimicin B, reference compound] | – | – | 0.32 (≈ 0.713 µM) | – | – | – | – | – | slightly unstable | have antibacterial activity | 50 (≈ 111 µM) | 100 (≈ 223 µM) | – | – |
| CO[C@H]1[C@@H](O)[C@H](N)[C@@H](O[C@H]2O[C@H]([C@H](C)N)CC[C@H]2N)[C@H](O)[C@@H]1N(C)C[C@@H](O)CCN [Compound 27, 4-N-[(S)-4-amino-2-hydroxybutyl]fortimicin B] | 6.25 (≈ 14.3 µM) | – | 0.16 (≈ 0.367 µM) | – | – | 135 | – | – | – | – | – | 25 (≈ 57.4 µM) | 1.88 | 2.81 |
